# Patent US7169411B1, “Composition for delivery of biological agents and methods for the preparation thereof” (The University of Nebraska Board of Regents, priority 1997, dated 2007)
# Assay: Potentiometric binding isotherms of surfactants to polyethylene oxide-block-poly(sodium methacrylate)
# Format: physicochemical
# Settings: FIG. 1
# Excerpt: While not wishing to be bound by any particular theory, it is believed that the above-described surfactants and block copolymers of opposite charge form stable complexes due to cooperative binding. (See, e.g., Goddard, In Interactions of Surfactants with Polymers and Proteins. Goddard and Ananthapadmanabhan, Eds., pp. 171 et seq., CRC Press, Boca Raton, Ann Arbor, London, Tokyo, 1992). Cooperative binding occurs in the sense that binding of surfactant molecules to the block copolymer is enhanced by the presence of other molecules of the same or a different surfactant already bound to the same copolymer. According to the cooperative binding mechanism which is believed to underlie this invention, surfactant binds electrostatically to the oppositely charged P-type segments of the block copolymer to form supramolecular complexes. […]
# B. The binding isotherms of cetylpyridinium bromide (Sigma Co.) and dodecylpyridinium bromide (Sigma Co.) with the polyethylene oxide-block-poly(sodium methacrylate) copolymer were determined potentiometrically by using the following ion-selective electrode: Ag/AgCl | 1 M NH4NO3 agar bridge | reference solution (surfactant, 2.5·10^−4 M) | PVC membrane | sample solution | 1 M NH4NO3 agar bridge | Ag/AgCl. […] The electromotive force (emf) of the cell was measured with a digital Radiometer pHM-83 pH-meter. […]
smiles,measurement,value
CCCCCCCCCCCC[n+]1ccccc1.[Br-] [dodecylpyridinium bromide],stability of the complex with the block copolymer relative to cetylpyridinium bromide,decreases the stability of the complex more than ten-fold
